Assay results as given in patent US20160129021A1, “STERILIZATION METHOD” (UNIVERSITY OF PITTSBURGH - OF THE COMMONWEALTH SYSTEM OF …, priority 2013, published 2016).

Assays:
[1] = system: FGF and GDNF-mediated phosphorylation of ERK; experiment: FGF/GDNF-stimulated ERK phosphorylation in GS cell cultures (western blot); type: cell-based, mouse; settings: FGF 20 ng/ml or GDNF 20 ng/ml, pretreatment with 50 μM
Method: (§1) FIG. 7A-F. Inhibition of SHP2 blocks GDNF and FGF signaling causes SSCs to detach from their niche decreases the number of SSCs in culture and disrupts spermatogenesis in vivo. […] Western blot analysis of p-ERK and ERK levels after the treatments is shown. […] The percentage of cells detached from feeder cells was determined (n=3, *=p<0.05). C) The epididymis of control and GCSHP2KO mice were stained with periodic acid Schiffs-hematoxylin. Immature germ cells in GCSHP2KO epididymis are identified with arrows. D) GS cells treated with vehicle or NSC (50 μM) as in B were isolated from feeder cells, dispersed and counted. E) Clumps of GS cells (white arrows) and feeder cells (yellow arrows) treated as in D were assayed for live (green) and dead (red) cells.
Isolation of THY1+ germ cells from 6-day-old DBA/2 mice was performed as described previously to produce GS cell cultures (Oatley and Brinster, 2006) (more details in Supplemental Experimental Procedures). […] SSCs were detached from feeders and FGF or GDNF were added for 10 min. Detached SSCs were then pelleted (600×g, 7 min) and the pellets were lysed in Laemmli sample buffer.
WCE boiled in Laemmli sample buffer were fractionated by 10% SDS-PAGE and transferred to Immobilon-P, PVDF membranes 90 (Millipore Corp., Bedford, Mass.). […]

GS cells [2] = experiment: Detachment of GS cells from feeder cells; type: cell-based, mouse; settings: 50 μM, 5 days, vs vehicle
Method: as §1
(§2) Preparation of GS cell cultures from 6-day-old DBA/2 mice was performed as described previously (Oatley and Brinster, 2006). Briefly, a testicular cell suspension was isolated by enzymatic digestion with DNase and trypsin and filtered through a 40 uM mesh to remove cell clumps. Germ cells were then enriched from these suspensions through a 30% percoll gradient. The germ cell suspensions were subjected to magnetic activated cell sorting (MACS) to select Thy1+ cells to enrich for SSCs. […]

GS cells [3] = experiment: GS cell number after isolation from feeder cells, dispersed and counted; type: cell-based, mouse; settings: 50 μM, 5 day treatment, vs vehicle
Method: as §1
All immunostained cells and tubules from an entire testis section were counted and the number of stained cells per tubule was determined. GS cell viability was determined using the LIVE/DEAD Viability Assay kit for mammalian cells (Life Technologies)
as §2, with “gradient.” for “gradient. The germ cell suspensions were subjected to magnetic activated cell sorting (MACS) to select Thy1+ cells to enrich for SSCs.”

[4] = system: spermatogenesis in adult mice; experiment: ip injection into adult mice, testis sections stained with PAS-H; type: in vivo, mouse; settings: 15 days later
Method: as §1, with “cells. […] Furthermore, the populations of spermatocytes and spermatids were reduced.” for “cells.”

[5] = system: spermatogenesis in testes of adult mice; experiment: One injection into the testes of adult mice, sperm production; type: in vivo, mouse
spleen tissue = experiment: Spleen tissue after injection into testes; type: in vivo, mouse; settings: same animal as FIG. 11 (10 mg/kg into testes), 15 days after injection
[6] = 5 mg/kg ip daily for 3 or 7 days

O=S(=O)(O)c1ccc2cc(/N=N/c3cc(S(=O)(=O)O)c4cccnc4c3O)ccc2c1 [NSC-87877, 8-Hydroxy-7-[(6-sulfo-2-naphthyl)azo]-5-quinolinesulfonic acid]
FGF and GDNF-mediated phosphorylation (activation) of ERK [1]: decreased FGF and GDNF mediated activation of ERK
FGF and GDNF-mediated phosphorylation (activation) of ERK ([1]; listed as NSC-878777): inhibited the FGF and GDNF-mediated phosphorylation of ERK
increase in the number of GS cells detached from the feeder cells (GS cells [2]): 3 fold
reduction of the number of GS cells (GS cells [3]): 22%
further disruption of spermatogenesis (elongated spermatids) [4, 6]: mis-localization and mis-orientation of elongated spermatids
populations of spermatocytes and spermatids [4, 6]: reduced
spermatogonia in tubules at the periphery of the testes [4, 6]: absence of spermatogonia
germ cells in some tubule cross sections ([4]; 5 mg/kg ip daily for 7 days): nearly all germ cells were absent
sperm production, long term ([5]; one injection of 10 mg/kg into the testes, adult mice, 70 days): loss of sperm production in some regions of the testes
spermatogenesis (sperm production) ([5]; one injection of 40 mg/kg into the testes, adult mice, 15 days later): sufficient to disrupt spermatogenesis
fertility ([5]; single dose of 10 mg/kg or 40 mg/kg, mouse): effective in decreasing fertility
damage of spleen tissue (spleen tissue): not damaged
